In one data set the test system is C. difficile CECT531. Briefly: microbe, parasite or virus in culture. The format is cell-based, Clostridioides difficile.
A further data set has as its system E. faecalis V583. Briefly: microbe, parasite or virus in culture. Format: cell-based, Enterococcus faecalis.
The subject of the next data set is S.aureus LMG10147. The data set can be described thus: microbe, parasite or virus in culture. The format is cell-based, Staphylococcus aureus.
In data set [1] the test system is E. faecium LMG16003 and S. aureus LMG82224. Briefly: Combination with 24 traditional antibiotics, overall outcome. Format: cell-based.
The test system of the next data set is B. cereus ATCC14579. Briefly: microbe, parasite or virus in culture. The format is cell-based, Bacillus cereus.
Data set [2] has as its system B. cereus ATCC10987. The data set can be described thus: Effect of the compounds on actively growing bacteria (lysis, OD600). The format is cell-based, Bacillus cereus.
Another data set relates to C. perfringens CECT376. The data set can be described thus: microbe, parasite or virus in culture. Format: cell-based.
A further data set is described as follows: in vitro. The note with it: human.
The test system of data set [3] is B. cereus ATCC10987. The data set can be described thus: microbe, parasite or virus in culture. Format: cell-based, Bacillus cereus.
The test system of the next data set is Enterococcus strains. Briefly: Time killing kinetic and minimal bactericidal concentration, Enterococcus. Format: cell-based.
Another data set has as its system E. coli LMG8224. The data set can be described thus: Outer membrane permeabilization test (MIC with or without L-11 peptide).
For data set [4], the system named is panel of aerobic and anaerobic Gram-positive bacteria. Briefly: organism not typed. The format is cell-based.
Another data set deals with S. aureus. On the set-up: method as in PMID 29906565. The conditions noted are these: cited from earlier work.
Data set [5] has as its system B. cereus ATCC10987. The data set can be described thus: Intracellular ATP level quantification (BacTiter-Glo). The note with it: 32 μM of the compounds (100 μM for CCCP), 30, 60, and 120 min, 37 °C.
Data set [6] has as its system B. cereus ATCC10987 respiratory chain. The data set can be described thus: Activity of the respiratory chain (resazurin reduction). Format: cell-based, Bacillus cereus. The note with it: dose-related, 125 min. The method, then: The effect of the resveratrol derivatives on the B. cereus ATCC10987 respiratory chain was measured by the reduction of resazurin to the fluorescent resorufin. The bacteria were cultured in LB medium at 37 °C to an OD600 of 1. Then, the cells were washed three times in cMHB and resuspended in this medium at a final OD600 of 0.2. Resazurin at 100 μg/mL was added to the cells that were distributed in a 96-well plate. […] No treated cells and just MHB medium with resazurin were used as negative controls. All the tests were performed in triplicate.

The test system of data set [7] is B. cereus ATCC10987. The data set can be described thus: Membrane potential assay DiSC3(5). The note with it: 2×, 1×, and 0.5× the MIC.
In the next data set the test system is B. cereus ATTC10987. The data set can be described thus: Membrane integrity assay (propidium iodide uptake). The format is cell-based, Bacillus cereus. The conditions noted are these: 2×, 1×, and 0.5× the MIC. How it is done:
B. cereus ATTC10987 was grown in LB with shaking at 37 °C for 18 h. After that, the cells were centrifuged and washed in 5 mM HEPES buffer (pH 7.4) plus 5 mM glucose (G-HEPES buffer) three times, adjusted to an OD600 of 0.5 in the same buffer plus 10 μg/mL of propidium iodide (Sigma-Aldrich), and incubated for 10 min at 37 °C. This is a nonfluorescent dye impermeable to the bacterial membranes, but, if the membranes are disturbed, the dye can enter by binding the DNA, providing a strong fluorescent signal. […] The experiment was performed in triplicate.

A further data set deals with S.aureus LMG8224. Briefly: microbe, parasite or virus in culture. Format: cell-based, Staphylococcus aureus.
Another data set relates to C. tetani CECT4629. The data set can be described thus: microbe, parasite or virus in culture. The note with it: Table 1; 128 to 2 μM, RCM medium, anaerobic, 24 h. Format: cell-based.
The next data set has as its system E. faecalis LMG16216. The data set can be described thus: microbe, parasite or virus in culture. Format: cell-based, Enterococcus faecalis.
In data set [8] the test system is B. cereus ATCC 10987, E. faecalis V583, E. faecium LMG 16003, and S. aureus LMG 8224. Format: cell-based. The note with it: 2-fold the MIC, 24 h, cMHB.
A further data set relates to E. faecium LMG11423. Briefly: microbe, parasite or virus in culture. The format is cell-based.
The subject of another data set is S.aureus LMG15975. The data set can be described thus: microbe, parasite or virus in culture. The format is cell-based, Staphylococcus aureus.
The test system of a further data set is C. beijerinckii B504. Briefly: MIC test, anaerobes. Format: cell-based. The conditions noted are these: Table 1; 128 to 2 μM, RCM medium, anaerobic, 24 h. The gist of the method: (§1)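 Broth microdilution in RCM medium per CLSI anaerobe recommendations, inoculum 5 × 10^5 CFU/mL. Plates incubated in an anaerobic chamber at 37 °C for 24 h; triplicate tests.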
A further data set deals with C. ihumii AP5. Briefly: MIC test, anaerobes. The format is cell-based. The note with it: Table 1; 128 to 2 μM, RCM medium, anaerobic, 24 h; read-out: Minimal Inhibition Concentration (MIC) C. ihumii AP5. The method in brief:
as §1

The test system of another data set is E. faecium LMG16003. The data set can be described thus: microbe, parasite or virus in culture. The format is cell-based.
The subject of a further data set is C. botulinum CECT551. Briefly: microbe, parasite or virus in culture. Format: cell-based. The note with it: Table 1; 128 to 2 μM, RCM medium, anaerobic, 24 h.
Another data set deals with E. faecalis LMG08222. The data set can be described thus: microbe, parasite or virus in culture. Format: cell-based, Enterococcus faecalis.

Values after ≈ are worked out from the molar mass of the structure shown.

As usually defined, the IC50 is the concentration that inhibits the measured activity by half. Higher therefore signals weaker potency in that assay.

On to `CCCCOc1cc(/C=C/c2ccc(OS(=O)(=O)O)cc2)cc(OS(=O)(=O)O)c1` [compound 15, 3-butyl-4′,5-disulfate resveratrol], for which the MIC in the data set on C. difficile CECT531 (Clostridioides difficile, CECT531, 24 h, read-out: Minimal Inhibition Concentration (MIC) C. difficile CECT531) was found to be 64 µM (≈ 28.4 µg/mL); in the data set on E. faecalis V583 (Enterococcus faecalis, V583, 20 h, read-out: Minimal Inhibition Concentration (MIC) E. faecalis V583) it was 26.6 ± 5.3 µM (≈ 11.8 µg/mL); in the data set with S.aureus LMG10147 (Staphylococcus aureus, LMG10147, 20 h, read-out: Minimal Inhibition Concentration (MIC) S.aureus LMG10147), 8 µM (≈ 3.56 µg/mL); in the data set with B. cereus ATCC14579 (Bacillus cereus, ATCC14579, 20 h, read-out: Minimal Inhibition Concentration (MIC) B. cereus ATCC14579), 6.6 ± 1.3 µM (≈ 2.93 µg/mL); in the data set on C. perfringens CECT376 (Clostridium perfringens, CECT376, 24 h, read-out: Minimal Inhibition Concentration (MIC) C. perfringens CECT376), 26.6 ± 5.3 µM (≈ 11.8 µg/mL); in the data set on B. cereus ATCC10987 [3] (Bacillus cereus, ATCC10987, 20 h, read-out: Minimal Inhibition Concentration (MIC) B. cereus ATCC10987) it was 8 µM (≈ 3.56 µg/mL). Further, the MIC in the data set on E. coli LMG8224 (Escherichia coli, LMG8224, read-out: MIC (μM) L-11 + 0 μM) was over 128 µM. In addition, in data set [1], the “combined effect with traditional antibiotics” value is listed as “strong synergistic effects”. For the same molecule, the entries for the “effect on actively growing cells” value in the data set on B. cereus ATCC10987 [2] (at 2× the MIC) and with B. cereus ATCC10987 [2] (at the MIC concentration) were “bactericidal” and “bacteriostatic”, respectively. In the data set “in vitro”, the 50% inhibitory concentration (IC50) worked out at 24.9 ± 4 µM. The bactericidal/bacteriostatic effect entry with Enterococcus strains (Enterococcus strains, 2-fold the MIC, 24 h, minimal bactericidal concentration test) is given as “bacteriostatic”. Further, the MBC in the data set with Enterococcus strains (Enterococcus, read-out: minimal bactericidal concentration (bacteria grew after the treatment)) is over 128 µM. The “antibacterial activity against the Gram-positive panel” value in [4] was “active against all Gram-positive bacterial strains examined”.
In the case of `Oc1ccc(/C=C/c2cc(O)cc(O)c2)cc1` [compound 1, Resveratrol], the “concentration 0.5× the MIC at which additive effects with aminoglycosides were obtained” value in the data set with S. aureus is on record as “about 560 μM”. Further, the “intracellular ATP levels” value in the data set with B. cereus ATCC10987 [5] is “did not statistically affect the ATP levels”. Besides, in [6], the “effect on the respiratory chain (reduction of resazurin)” value was “No effect”. In the data set on B. cereus ATCC10987 [7], the “membrane potential change (DiSC3(5))” value was “did not induce any membrane potential change”. The “membrane permeabilization (propidium iodide uptake)” value in the data set on B. cereus ATTC10987 is reported as “did not induce any effect on membrane permeability”. Further, inhibition in “in vitro” was half-maximal at 56.6 ± 3.2 µM (IC50 at 72 h).
As to “4′-tert-butyldimethylsilyl resveratrol [compound 17]”, in the data set on S.aureus LMG8224, the “Minimal Inhibition Concentration (MIC) S.aureus LMG8224” value was 8 ± 0 µM. Besides, the “Minimal Inhibition Concentration (MIC) C. difficile CECT531” value in the data set with C. difficile CECT531 came out at 21.3 ± 5.3 µM. In addition, the “Minimal Inhibition Concentration (MIC) E. faecalis V583” value in the data set with E. faecalis V583 came out at 8 ± 0 µM. Moreover, the “Minimal Inhibition Concentration (MIC) C. tetani CECT4629” value with C. tetani CECT4629 was 5.3 ± 1.3 µM. Moreover, the “Minimal Inhibition Concentration (MIC) S.aureus LMG10147” value with S.aureus LMG10147 was determined as 8 ± 0 µM. For the same molecule, the “Minimal Inhibition Concentration (MIC) E. faecalis LMG16216” value with E. faecalis LMG16216 is 8 ± 0 µM. The “combined effect with traditional antibiotics” value in data set [1] is “an additive effect was mainly observed”. Moreover, the “Minimal Inhibition Concentration (MIC) B. cereus ATCC14579” value with B. cereus ATCC14579 is 4 ± 0 µM. Further, the “effect on actively growing cells” value is “bactericidal” with B. cereus ATCC10987 [2] (at 2× the MIC) and “bacteriostatic” with B. cereus ATCC10987 [2] (at the MIC concentration). The bactericidal/bacteriostatic effect result in data set [8] is given as “bactericidal”. For the same molecule, the “Minimal Inhibition Concentration (MIC) C. perfringens CECT376” value in the data set with C. perfringens CECT376 worked out at 13.3 ± 2.6 µM. Further, the “Minimal Inhibition Concentration (MIC) B. cereus ATCC10987” value with B. cereus ATCC10987 [3] is 8 ± 0 µM. In addition, in the data set with E. faecium LMG11423, the “Minimal Inhibition Concentration (MIC) E. faecium LMG11423” value is 8 ± 0 µM. In addition, the “Minimal Inhibition Concentration (MIC) S.aureus LMG15975” value with S.aureus LMG15975 was determined as 8 ± 0 µM. Moreover, the “Minimal Inhibition Concentration (MIC) C. beijerinckii B504” value in the data set with C. beijerinckii B504 amounted to 10.6 ± 2.6 µM. Moreover, in the data set with C. ihumii AP5, the MIC amounted to 16 µM. The “Minimal Inhibition Concentration (MIC) E. faecium LMG16003” value in the data set on E. faecium LMG16003 was 8 ± 0 µM. Also, the “Minimal Inhibition Concentration (MIC) C. botulinum CECT551” value in the data set with C. botulinum CECT551 worked out at 13.3 ± 2.6 µM. Moreover, the “Minimal Inhibition Concentration (MIC) E. faecalis LMG08222” value in the data set on E. faecalis LMG08222 worked out at 6.6 ± 1.3 µM. In addition, the “MIC (μM) L-11 + 0 μM” value with E. coli LMG8224 (absence of L-11 outer-membrane-perturbing peptide) is over 128 µM. Further, the “MIC (μM) L-11 + 4 μM” value with E. coli LMG8224 (presence of 4 μM L-11 outer-membrane-perturbing peptide) was 13.3 ± 2.6 µM. The molecule further registered an IC50 with MRC5 cells of 15.5 ± 1.3 µM.

Values taken from publication PMC9237828, “Chemically Tuning Resveratrol for the Effective Killing of Gram-Positive Pathogens” (Journal of Natural Products, 2022).
